Holding throughout (assay type): cell-based
For assay [1], the system named is LP Bacteria in form of biofilm. Kind of assay: Effect of additives (cranberries, ascorbic acid) on Bacteria in form of biofilm survival and growth. The text has this: High vaginal pH is associated with an increase of vaginal pathogens and the acidity of the vagina has long been understood to be a protective mechanism against colonization of anaerobes pathogens while creating a favourable environment for the lactobacilli to thrive. Examining the effect of different additives (cranberries and ascorbic acid) on Bacteria in form of biofilm LP (as part of a small scale). […] The aim is to add one of these additives along with the Bacteria in form of biofilm in the suppository composition. As such, their effect on Bacteria in form of biofilm survival and growth was tested.

Assay [2] has as its system Lactobacillus iners. Kind of assay: Antibiotic MIC strip assay, planktonic LI. On the procedure:
(§1) For antibiotic assay, and overnight culture was diluted to an optical start density (OD) of 0.13. […] Plates were incubated at 37° C. for 24 h before minimum inhibitory concentration (MIC) value were determined.

Assay [3] concerns Lactobacillus jensenii. Kind of assay: Antibiotic MIC strip assay, planktonic LJ. Particulars: for MIC: Lactobacillus jensenii. The protocol:
as §1

Assay [4] has as its system Lactobacillus crispatus. Kind of assay: Antibiotic MIC strip assay, planktonic LCr. The note with it: for MIC: Lactobacillus crispatus. The protocol: as §1
Assay [5] has as its system Lactobacillus gasseri. Kind of assay: Antibiotic MIC strip assay, planktonic LG. Particulars: for MIC: Lactobacillus gasseri. The protocol:
as §1

The test system of assay [6] is Lactobacillus rhamnosus. Kind of assay: Antibiotic MIC strip assay, planktonic LRh. The protocol:
as §1

Setting [7] is: planktonic LI, MIC strips, 24 h 37° C., read-out: MIC.
Setting [8] is: planktonic LJ, MIC strips, 24 h 37° C., read-out: MIC.
The mark [9] stands for this setting: planktonic LCr, MIC strips, 24 h 37° C., read-out: MIC.
The mark [10] stands for this setting: planktonic LG, MIC strips, 24 h 37° C., read-out: MIC.
The mark [11] stands for this setting: Lacticaseibacillus rhamnosus, planktonic LRh, Table 7, read-out: MIC.
Where [12] appears, read: Lacticaseibacillus rhamnosus, planktonic LRh, read-out: MIC.

The structures appear in SMILES notation. Values after ≈ are worked out from the molar mass of the structure shown. Read-outs that look alike come from different tables or passages of the source.

`O=C1O[C@H]([C@@H](O)CO)C(O)=C1O` [AA, Ascorbic Acid]: the “effect of addition of supplement on Bacteria in form of biofilm growth” value in assay [1] was “did not affect”.

By MIC is commonly meant the lowest concentration found to suppress growth. For the molecule `CC1(C)S[C@@H]2[C@H](NC(=O)C(C(=O)O)c3ccccc3)C(=O)N2[C@H]1C(=O)O` (stereo partly drawn) [CB, carbenicillin], the MIC in assay [2] (setting [7]) was 64 µg/mL (≈ 169 µM); in assay [3] (setting [8]), 8 µg/mL (≈ 21.1 µM); in assay [4] (setting [9]), 4 µg/mL (≈ 10.6 µM); in assay [5] (setting [10]), 4 µg/mL (≈ 10.6 µM); in assay [6] (setting [11]), 4 µg/mL (≈ 10.6 µM); in assay [6] (setting [12]) it was 4 µg/mL (≈ 10.6 µM).

As to `O=C(O)c1cn(C2CC2)c2cc(N3CCNCC3)c(F)cc2c1=O` [CIP, ciprofloxacin], the MIC in assay [3] (setting [8]) is over 256 µg/mL; in assay [4] (setting [9]), over 256 µg/mL; in assay [5] (setting [10]), over 256 µg/mL; in assay [6] (setting [11]), 2 µg/mL (≈ 6.04 µM); in assay [6] (setting [12]), 0.25 µg/mL (≈ 0.754 µM). Also, the “susceptibility of planktonic bacteria to antibiotic” value in assay [3] (planktonic LJ) was “not susceptible”; in assay [4] (planktonic LCr) it was “not susceptible”; in assay [5] (planktonic LG), “full resistance”.

On to `CO[C@@H]1[C@@H](OC(N)=O)[C@@H](O)[C@H](Oc2ccc3c(O)c(NC(=O)c4ccc(O)c(CC=C(C)C)c4)c(=O)oc3c2C)OC1(C)C` [NVB, novobiocin], for which the MIC in assay [2] (setting [7]) is 16 µg/mL (≈ 26.1 µM); in assay [3] (setting [8]) it was 2 µg/mL (≈ 3.26 µM); in assay [4] (setting [9]) it was 2 µg/mL (≈ 3.26 µM); in assay [5] (setting [10]) it was 2 µg/mL (≈ 3.26 µM); in assay [6] (setting [11]), 2 µg/mL (≈ 3.26 µM); in assay [6] (setting [12]), 2 µg/mL (≈ 3.26 µM).

In the case of `CN[C@H](CC(C)C)C(=O)N[C@H]1C(=O)N[C@@H](CC(N)=O)C(=O)N[C@H]2C(=O)N[C@H]3C(=O)N[C@H](C(=O)N[C@H](C(=O)O)c4cc(O)cc(O)c4-c4cc3ccc4O)[C@H](O)c3ccc(c(Cl)c3)Oc3cc2cc(c3O[C@@H]2O[C@H](CO)[C@@H](O)[C@H](O)[C@H]2O[C@H]2C[C@](C)(N)[C@H](O)[C@H](C)O2)Oc2ccc(cc2Cl)[C@H]1O` [VAN, vancomycin], the MIC was 4 µg/mL (≈ 2.76 µM) in assay [2] (24 h); 1.5 µg/mL (≈ 1.04 µM) in assay [3] (24 h); 1.5 µg/mL (≈ 1.04 µM) in assay [4] (24 h); 1.5 µg/mL (≈ 1.04 µM) in assay [5] (24 h); over 256 µg/mL in assay [6] (Lacticaseibacillus rhamnosus); over 256 µg/mL in assay [6] (planktonic LRh, Table 7).

Values taken from US10709744B1, “Probiotic biofilm suppositories” (priority 2019, dated 2020).
